This is an account of results in patent US6576811B1, “Transgenic rat with human normal type c-Ha-ras gene” (National Cancer Center Research Institute, priority 1998, dated 2003).

Series [1] deals with Hras128 rats. As to the kind of experiment: BBN-induced urinary bladder tumors in Hras128 rats. Format: in vivo, rat. The method, then: (§1) In the same manner as in Example 2, 0.05% N-butyl-N-(4-hydroxybutyl)nitrosoamine (BBN) was administered mixed with drinking water to Hras128 rats and the wild type rats for 10 weeks, to induce bladder tumors. The incidences of bladder tumors (papillomas and carcinomas combined) are shown in Table 11, the mutation of the human c-Ha-ras proto-oncogene codons 12 and 61 and endogeneous rat H-ras shown in Table 12.

Another series relates to wild type rats. As to the kind of experiment: BBN-induced urinary bladder tumors in wild type rats. Format: in vivo, rat. To be noted: Wild female. The method, then: as §1
The subject of series [2] is human c-Ha-ras proto-oncogene (transgene). As to the kind of experiment: Mutation analysis (RFLP, PCR-SSCP) of the transgene in carcinogen-induced tumors. From the text:
Single-stranded DNA confirmation polymorphism (SSCP) analysis is able to be performed according to the followings; T. Sekiya. Protein, Nucleic Acid, Enzyme, vol.
Possible mutations in exons 1 to 4 of the human Ha-ras proto-oncogene and exons 1 and 2 of the endogenous gene were examined by PCR-SSCP analysis.
RFLP analysis is able to perform according to the followings; Nagase, et al., Protein, Nucleic Acid, Enzyme, vol.

In series [3] the test system is endogenous Ha-ras gene (rat). As to the kind of experiment: Mutation analysis (PCR-SSCP) of the endogenous Ha-ras gene in carcinogen-induced tumors. The source says:
Single-stranded DNA confirmation polymorphism (SSCP) analysis is able to be performed according to the followings; T. Sekiya. Protein, Nucleic Acid, Enzyme, vol. 41, No. 5, 539, 1996.
Possible mutations in exons 1 to 4 of the human Ha-ras proto-oncogene and exons 1 and 2 of the endogenous gene were examined by PCR-SSCP analysis. Using human or rat specific primers, only two bands appeared on the gals. With common primers (cHras21F and cHras21R) for Ha-ras exon 2 of both man and rats, four bands were detected. Human or rat specific bands were identified by signals from normal DNA of the transgenic and non-transgenic rats. DNA from T24 having a mutation in human Ha-ras of codon 12, GGC to GTC and that from pSK2 having a mutation in the codon 61, CAG to CTG, gave clearly mobility shifted bands in the assays (FIG. 4). However, a GGC to GAC mutation of the transgene enriched by PCR after RFLP analysis as described below, which was frequently observed in tumors induced by MNU in human Ha-ras proto-oncogene transgenic mice, could not be detected by SSCP -PCR analysis. In 44 tumors from Hras128 transgenic rats treated with MNU, mutations were not detected in exons 1 to 4 of the introduced human and endogenous c-Ha-ras genes under any of four SSCP conditions (at 4 or 20° C., with or without 5% glycerol) (Table 1). In contrast, a relatively high frequency (6 of 21 tumors of non-transgenic rats (28.6%) of GGA to GAA mutations in codon 12 of the endogenous Ha-ras gene was detected in mammary carcinomas of non-transgenic using PCR-SSCP analysis followed by direct sequencing (Table 1).

Series [4] has as its system wild type rats (non Tg rats). Description: DMBA-induced mammary carcinomas in wild type rats. Format: in vivo, rat.
From the text: (§4) Well established mammary carcinogens, such as 7,14-dimethylbenz[a]anthracene (DMBA) and 2-amino-1-methyl-6-phenylimidazo[4,5-]pyridlne (PhIP) were given to the Hras128 rats in the same manner as in previous reports.
(§5) The number of tumor indicates number of lesions per rat and the sizes of the tumors indicates their diameter (mm).
Series [5] concerns Hras128 rats. As to the kind of experiment: DMBA-induced mammary carcinomas in Hras128 rats.
From the text: as §4, §5
Series [6] relates to Hras128 rats. Description: ENU-induced transplacental carcinogenesis in Hras128 (Tg 128) rats. The series is classed as in vivo, rat. As to conditions: for No. of tumor bearing rat/total No. of rat / Tumor incidence, CNS / Tumor incidence, kidney / Tumor incidence, mammary gland / Tumor incidence, papilloma / Tumor incidence, spleen: transplacental ENU. The protocol:
(§2) The effects of transplacental administration of carcinogenic substances were examined in offsprings of females and males of Hras128 rats and wild rats.
(§3) Transplacental administration of ethylnitrosourea (ENU) was performed and incidence of tumors in many organs of the bearing rats are shown in Table 14.

The test system of the next series is wild rats. As to the kind of experiment: ENU-induced transplacental carcinogenesis in wild rats. The series is classed as in vivo, rat. The method, then: as §2, §3
The subject of series [7] is Hras128 rats. Description: PhIP-induced mammary carcinomas in Hras128 rats. Format: in vivo, rat.
From the text: as §4
Series [8] concerns wild type rats (non Tg rats). As to the kind of experiment: PhIP-induced mammary carcinomas in wild type rats. The series is classed as in vivo, rat. As to conditions: 4 rats.
From the text: as §4
The subject of series [9] is Hras128 rats. As to the kind of experiment: Effects of d-limonene on MNU-induced mammary carcinogenesis in Hras128 transgenic rats. Format: in vivo, rat. To be noted: 5% d-limonene, 9 rats.
[10] abbreviates: Hras128 female, bladder papillomas and carcinomas combined, 20 rats.
Where [11] appears, read: bladder papillomas and carcinomas combined, 15 rats.
Where [12] appears, read: BBN-induced bladder tumors, Hras128, 27 tumors examined.
[13] abbreviates: BBN-induced bladder tumors, Wild, 17 tumors examined.
Setting [14] is: DMBA-induced mammary carcinomas, Hras128, 20 tumors examined.
Where [15] appears, read: DMBA-induced mammary carcinomas, Hras128, 20 tumors examined, RFLP.
The mark [16] stands for this setting: DMBA-induced mammary carcinomas, Wild, 7 tumors examined.
The mark [17] stands for this setting: Hras128, mammary carcinomas, 14 rats.
The mark [18] stands for this setting: Hras128, mammary carcinomas, 6 rats.
Where [19] appears, read: PhIP-induced mammary carcinomas, row printed 'Wild' (Hras128 per text), 20 tumors examined.
Setting [20] is: PhIP-induced mammary carcinomas, row printed 'Wild' (Hras128 per text), 20 tumors examined, RFLP.

Where “and” joins values, the source holds several entries; their conditions need not be identical. Equal entries are not always repeated. Marks after values point to notes of the source that are not given here.

In the case of `CCCCN(CCCCO)N=O` [BBN, N-butyl-N-(4-hydroxybutyl)nitrosoamine], the “Incidence of carcinomas (fraction)” value in the series with Hras128 rats [1] (Hras128 female, bladder) is 11/14. In addition, the “No. of tumor-bearing rats” value with Hras128 rats [1] (Hras128 female, bladder papillomas and carcinomas combined, 0.05% BBN in drinking water 10 weeks, 20 rats) amounted to 19. In addition, in the series on Hras128 rats [1] (setting [10]), the “No. of tumor-bearing rats (%)” value is recorded as 95% and the No. of tumors/rat was 13.2 ± 6.8^b. In addition, in the series with Hras128 rats [1] (Hras128 female, bladder, percent sign not given), the “Incidence of carcinomas (figure in parentheses)” value turned out to be 35.3. The “Sensitivity of the Hras128 rat to BBN carcinogenesis in the bladder” value in the series on Hras128 rats [1] (rat, in vivo) is “slightly elevated sensitivity”. The “Incidence of carcinomas (fraction)” value in the series on wild type rats (bladder) is given as 4/13. The “No. of tumor-bearing rats” value in the series on wild type rats (bladder papillomas and carcinomas combined, 0.05% BBN in drinking water 10 weeks, 15 rats) was found to be 15. In addition, in the series with wild type rats (setting [11]), the “No. of tumor-bearing rats (%)” value is reported as 100% and the No. of tumors/rat is recorded as 7.1 ± 5.2. The “Incidence of carcinomas (figure in parentheses)” value with wild type rats (bladder, percent sign not given) is given as 30.8. In addition, in series [2] (setting [12]), the “Transgene codon 12 mutations, %” value turned out to be 7.4%; the “Transgene codon 61 mutations, number of tumors” value is on record as 0; the “Transgene mutations total, %” value is listed as 7.4%; the “Transgene mutations total, number of tumors” value was determined as 2. Further, the “Transgene codon 12 mutations, number of tumors” value in [2] (BBN-induced bladder tumors, Hras128, 27 tumors examined, GGC to GAC) was 2/27 and 2. In addition, in series [3] (setting [12]), the “Endogenous (rat) exon 1 mutations, number of tumors” value is 0 and the “Endogenous (rat) exon 2 mutations, number of tumors” value (“Endogenous (rat) exon 2 mutations” below) was 0. For the same compound, in series [3] (setting [13]), the “Endogenous (rat) exon 1 mutations, %” value is listed as 5.9% and the “Endogenous (rat) exon 2 mutations” value is reported as 0. Also, the “Endogenous (rat) exon 1 mutations, number of tumors” value in [3] (BBN-induced bladder tumors, Wild, 17 tumors examined, GGA to GAA) was 1/17 and 1.
Turning to `Cc1c2ccccc2c(C)c2c1ccc1ccccc12` [DMBA], the “Tumor size (diameter)” value in series [4] was determined as 13.4 ± 8.20 mm. Moreover, in series [4] (12 rats), the “No. of tumor-bearing rats” value came out at 4, the “No. of tumor-bearing rats (%)” value came out at 33.3% and the No. of tumors/rat is 0.83 ± 1.75. Also, in [2] (setting [14]), the “Transgene codon 12 mutations, %” value turned out to be 30%; the “Transgene codon 61 mutations, %” value is given as 35%; the “Transgene mutations total, %” value came to 60%; the “Transgene mutations total, number of tumors” value was 12. Also, in series [2] (setting [15]), the “Transgene codon 12 mutations, number of tumors” value was 6/20 and 6; the “Transgene codon 61 mutations, number of tumors” value was 7/20 and 7. In addition, in [3] (setting [14]), the “Endogenous (rat) exon 1 mutations, number of tumors” value turned out to be 0 and the “Endogenous (rat) exon 2 mutations” value worked out at 0. Also, in series [3] (setting [16]), the “Endogenous (rat) exon 1 mutations, number of tumors” value came to 0 and the “Endogenous (rat) exon 2 mutations” value is listed as 0. Also, the “Tumor size (diameter)” value with Hras128 rats [5] (Hras128, mammary carcinomas) was 12.6 ± 9.22 mm. Further, in the series on Hras128 rats [5] (setting [17]), the “No. of tumor-bearing rats” value was 13, the “No. of tumor-bearing rats (%)” value is given as 92.9% and the No. of tumors/rat is listed as 9.39 ± 9.79^b. Besides, the “Sensitivity of the Hras128 rat to DMBA” value in the series on Hras128 rats [5] (mammary carcinogenesis) was “very sensitive”.
On to `CCN(N=O)C(N)=O` [ENU, ethylnitrosourea], for which, in the series on Hras128 rats [6] (Tg 128 Female offspring), the “No. of tumor bearing rat/total No. of rat” value is recorded as 6/9; the “Tumor incidence, CNS” value was 3/9; the “Tumor incidence, kidney” value is listed as 2/9; the “Tumor incidence, mammary gland” value is 5/9. In the series on Hras128 rats [6] (Tg 128 Female offspring), the “Tumor incidence, papilloma” value turned out to be 0 and the “Tumor incidence, spleen” value was 2/9. Besides, in the series on Hras128 rats [6] (Tg 128 Male offspring), the “No. of tumor bearing rat/total No. of rat” value is 8/15; the “Tumor incidence, CNS” value is listed as 6/15; the “Tumor incidence, kidney” value is 6/15; the “Tumor incidence, mammary gland” value is 4/15. For the same compound, in the series on Hras128 rats [6] (Tg 128 Male offspring), the “Tumor incidence, papilloma” value was 3/15 and the “Tumor incidence, spleen” value was 0/15. For the same compound, the “Occurrence of tumors in the central nervous system, kidney, skin, etc. after trans-placental administration” value with Hras128 rats [6] (transgenic rat, within a short period) is given as “significantly increases”. In the series on wild rats (Wild 128 Female offspring), the “No. of tumor bearing rat/total No. of rat” value is reported as 0/7; the “Tumor incidence, CNS” value was 0; the “Tumor incidence, kidney” value worked out at 0; the “Tumor incidence, mammary gland” value was 0. Further, in the series with wild rats (Wild 128 Female offspring), the “Tumor incidence, papilloma” value turned out to be 0 and the “Tumor incidence, spleen” value is reported as 0. Further, in the series on wild rats (Wild 128 Male offspring), the “No. of tumor bearing rat/total No. of rat” value is 2/6; the “Tumor incidence, CNS” value is recorded as 2/6; the “Tumor incidence, kidney” value was 0; the “Tumor incidence, mammary gland” value is recorded as 0. Besides, in the series with wild rats (Wild 128 Male offspring), the “Tumor incidence, papilloma” value came to 0 and the “Tumor incidence, spleen” value was determined as 0.
For the compound `Cn1c(N)nc2ncc(-c3ccccc3)cc21` [PhIP], in the series on Hras128 rats [7] (Hras128, mammary carcinomas), the Tumor size stood at 9.23 ± 6.21 mm. In the series on Hras128 rats [7] (setting [18]), the “No. of tumor-bearing rats” value amounted to 6, the “No. of tumor-bearing rats (%)” value was found to be 100% and the No. of tumors/rat is reported as 9.67 ± 4.76^b. The “Sensitivity of the Hras128 rat to PhIP” value in the series with Hras128 rats [7] (mammary carcinogenesis) is “highly sensitive”. For the same compound, in series [8], the “No. of tumor-bearing rats” value is given as 0(0), the “No. of tumor-bearing rats (%)” value was 0(0) % and the No. of tumors/rat is on record as 0. Also, in series [2] (setting [19]), the “Transgene codon 12 mutations, %” value was determined as 30%; the “Transgene codon 61 mutations, %” value is 23.1%; the “Transgene mutations total, number of tumors” value is recorded as 8. For the same compound, in [2] (setting [20]), the “Transgene codon 12 mutations, number of tumors” value was 6/20 and 6; the “Transgene codon 61 mutations, number of tumors” value was 3/20 and 3. Besides, the “Transgene mutations total, figure in parentheses” value in series [2] (PhIP-induced mammary carcinomas, row printed 'Wild' (Hras128 per text), percent sign not given) turned out to be 61.5. In [3] (setting [19]), the “Endogenous (rat) exon 1 mutations, number of tumors” value worked out at 0 and the “Endogenous (rat) exon 2 mutations” value is reported as 0.
For the compound `C=C(C)[C@H]1CC=C(C)CC1` [d-Limonene, d-limonene], in the series with Hras128 rats [9] (basal diet control 10.7 ± 7.34, P < 0.01), the “Average size of tumors (mm)” value is on record as 8.23 ± 4.88 ^a mm. In addition, the No. of tumors/rat with Hras128 rats [9] (basal diet control 26.4 ± 8.52) amounted to 19.4 ± 6.71. The “Average size of tumors (mm^3)” value in the series with Hras128 rats [9] (basal diet control 637.7 ± 1669, P < 0.01) is given as 269.5 ± 735.5 ^a mm^3.
